The values that follow come from publication PMC10969377, “N-3-Methylbutyl-benzisoselenazol-3(2H)-one Exerts Antifungal Activity In Vitro and in a Mouse Model of Vulvovaginal Candidiasis” (Current Issues in Molecular Biology, 2024).

In this test the target is T1, Na+, K+-ATPase (Sus scrofa, UniProt P05024).
T1 construct: gene ATP1A1; purified from pig kidney outer medulla
Description: Na+,K+-ATPase activity inhibition, enzyme purified from pig kidney (Figure S4). It counts as biochemical.

On to `CC(C)CCn1[se]c2ccccc2c1=O` [N-3mb-bs, N-3-methylbutyl-benzisoselenazol-3(2H)-one], for which the “Na+,K+-ATPase activity inhibition, enzyme purified from pig kidney (Figure S4)” value is “both N-allyl-bs and N-3mb-bs showed Na^+, K^+-ATPase inhibitory activity (purified from pig kidney outer medulla)”.

With `C=CCn1[se]c2ccccc2c1=O` [N-allyl-bs, N-allyl-benzisoselenazol-3(2H)-one], the “Na+,K+-ATPase activity inhibition, enzyme purified from pig kidney (Figure S4)” value is “both N-allyl-bs and N-3mb-bs showed Na^+, K^+-ATPase inhibitory activity (purified from pig kidney outer medulla)”.
